The text below walks through data of patent publication US20260158017A1, “KIF18A INHIBITOR” (WIGEN BIOMEDICINE TECHNOLOGY (SHANGHAI) CO., LTD., priority 2021, published 2026).

One experiment has as its system HCT116 cells. As to the kind of experiment: In vitro anti-proliferative activity against HCT116 cells (intracellular ATP content, 72 h). The following applies: for IC50: Homo sapiens, HCT-116, 72 h after dosing. The class given is cell-based. Here is the method: Biological Example 3. In Vitro Anti-Proliferative Activity of the Compounds of the Present Invention Against HCT116 Cells
HCT116 cells were seeded on a 384-well plate at 3000 cells/well. After overnight adherence culture, DMSO or the compounds serially 1:5-diluted from 5 μM were added. The viability of the cells was assessed 72 h after dosing by measuring the intracellular ATP content. The inhibition percentages of viable cells by the compounds were calculated by comparing with the DMSO group, and the IC 50 values were also calculated.

For experiment [1], the system named is Histone H3 Ser10 sites in HT29 cells. Put plainly: Phosphorylation assay of histone H3 Ser10 sites in HT29 cells (immunofluorescence assay). It is filed as cell-based. The following applies: Homo sapiens, HT-29, 6 h after addition, FITC/DAPI ratio. Here is the method: Biological Example 5. Phosphorylation Assay of Histone H3 Ser10 Sites in HT29 Cells (Immunofluorescence Assay)
HT29 cells were seeded in a 96-well plate (Fisher 160376) at 8000 cells/well. The next day, the serially diluted compounds were added. 6 h after the addition of the compounds, the cells were washed once with 1×PBS, immobilized with 4% PFA for 15 min, further washed three times with 1×PBS, and permeabilized with 0.02% Triton-X100 for 10 min. A blocking buffer was then added for blocking for 15-30 min, and 1:3000-diluted primary antibodies (Phospho-Histone H3 (Ser10) (D7N8E) XP® Rabbit mAb #53348) were added. The plate was placed at 4° C. overnight. The next day, the cells were washed three times with 1×PBS, and 1:1000-diluted secondary antibodies (Fluorescein (FITC)-conjugated Affinipure Goat Anti-Rabbit IgG (H+L)) were added. The cells were incubated in the dark for 1-2 h and washed three times with 1×PBS. The nuclei were stained with DAPI, and after the staining was completed, photographs were taken using an MD ImageXpress Pico personal high-content imaging analysis system. The ratio of phosphorylation (FITC/DAPI) at H3 Ser10 sites in HT29 cells was quantified. To evaluate the effects of the compounds on the mitosis phase of HT29 cells, the EC50 values of the compounds were calculated.

Experiment [2] relates to HT29 subcutaneous xenograft tumor. As to the kind of experiment: In vivo pharmacodynamic study, mouse HT29 subcutaneous xenograft tumor model. Set-up: species or system BALB/c nude mice. The following applies: for Tumor volume on day 1 of treatment / Tumor volume on day 28 of treatment / TGI (tumor growth inhibition): 80 mg/kg intragastric once daily; for Tumor volume on day 1 of treatment: baseline day 1; for TGI (tumor growth inhibition): day 28 vs day 1; for Inhibitory effect on HT29 mouse subcutaneous xenograft tumor (in words): 80 mg/kg, comparison with AMG650. The procedure: Biological Example 4. In Vivo Pharmacodynamic Study-Mouse HT29 Subcutaneous Xenograft Tumor Model
BALB/c nude mice were inoculated subcutaneously with 5×10^6 HT29 cells on the left dorsal side. After the tumors grew to 100-150 mm^3, the mice were randomly divided into the following groups for intragastric administration once daily: group 1: vehicle control group; group 2: compound 661 (80 mg/kg); group 3: compound 669 (80 mg/kg); group 4: compound 677 (80 mg/kg); group 5: compound 714 (80 mg/kg); group 6: compound 727 (80 mg/kg); group 7: compound 740 (80 mg/kg); and group 8: AMG650 (80 mg/kg). The tumor volume was measured twice weekly and at the end of treatment.

The next experiment concerns HT-29 cells. Put plainly: In vitro anti-proliferative activity against HT-29 cells (intracellular ATP content, 72 h). It is filed as cell-based. The settings on record: Homo sapiens, 72 h after dosing. Here is the method: Biological Example 2. In Vitro Anti-Proliferative Activity of the Compounds of the Present Invention Against HT-29 Cells
HT-29 cells were seeded on a 384-well plate at 3000 cells/well. After overnight adherence culture, DMSO or the compounds serially 1:5-diluted from 5 μM were added. The viability of the cells was assessed 72 h after dosing by measuring the intracellular ATP content. The inhibition percentages of viable cells by the compounds were calculated by comparing with the DMSO group, and the IC50 values were also calculated.

Experiment [3] addresses T1, Recombinant human KIF18A (1-467His-tagged) protein (Homo sapiens, UniProt Q8NI77).
T1 construct: Recombinant human KIF18A (1-467His-tagged) protein; His; made in house
Put plainly: KIF18A enzyme assay (microtubule-stimulated ATPase activity, ADP-Glo). It is filed as biochemical. The following applies: 30 nM KIF18A, 75 μM ATP, 30 μg/mL pig microtubules; read-out: Inhibitory activity against KIF18A IC50. The gist of the method:
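Buffer 15 mM Tris pH 7.5, 10 mM MgCl2, 0.01% Pluronic F-68, 1 μM paclitaxel, 30 μg/mL pig microtubules; reactions at room temperature. IC50 from inhibition relative to DMSO.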

T1 sequence (Q8NI77 1-467): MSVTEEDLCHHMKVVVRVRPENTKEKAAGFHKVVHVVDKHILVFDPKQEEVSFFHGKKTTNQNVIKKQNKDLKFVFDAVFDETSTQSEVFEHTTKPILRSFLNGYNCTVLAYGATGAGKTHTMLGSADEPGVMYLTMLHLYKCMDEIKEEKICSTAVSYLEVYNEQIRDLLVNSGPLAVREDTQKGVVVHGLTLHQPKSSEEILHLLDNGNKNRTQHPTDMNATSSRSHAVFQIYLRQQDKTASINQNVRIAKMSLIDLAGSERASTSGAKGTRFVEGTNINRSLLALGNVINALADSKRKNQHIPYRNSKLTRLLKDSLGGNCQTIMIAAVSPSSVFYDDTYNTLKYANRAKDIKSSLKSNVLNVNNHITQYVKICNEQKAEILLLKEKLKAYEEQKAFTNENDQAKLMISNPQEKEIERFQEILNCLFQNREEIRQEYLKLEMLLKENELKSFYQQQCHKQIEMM
T1 sequence (P02550 whole entry partner): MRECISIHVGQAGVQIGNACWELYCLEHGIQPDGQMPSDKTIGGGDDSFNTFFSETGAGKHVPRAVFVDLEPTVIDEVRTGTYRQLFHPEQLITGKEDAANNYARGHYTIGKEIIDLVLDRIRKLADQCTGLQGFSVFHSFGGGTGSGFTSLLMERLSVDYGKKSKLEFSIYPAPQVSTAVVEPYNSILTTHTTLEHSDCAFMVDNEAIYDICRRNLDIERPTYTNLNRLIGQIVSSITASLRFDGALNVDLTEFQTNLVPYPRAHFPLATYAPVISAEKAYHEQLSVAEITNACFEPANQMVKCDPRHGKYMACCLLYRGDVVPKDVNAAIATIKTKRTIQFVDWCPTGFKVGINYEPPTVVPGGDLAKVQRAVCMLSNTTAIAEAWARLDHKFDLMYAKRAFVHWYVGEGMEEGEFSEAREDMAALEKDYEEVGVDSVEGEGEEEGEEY
T1 sequence (P02554 whole entry partner): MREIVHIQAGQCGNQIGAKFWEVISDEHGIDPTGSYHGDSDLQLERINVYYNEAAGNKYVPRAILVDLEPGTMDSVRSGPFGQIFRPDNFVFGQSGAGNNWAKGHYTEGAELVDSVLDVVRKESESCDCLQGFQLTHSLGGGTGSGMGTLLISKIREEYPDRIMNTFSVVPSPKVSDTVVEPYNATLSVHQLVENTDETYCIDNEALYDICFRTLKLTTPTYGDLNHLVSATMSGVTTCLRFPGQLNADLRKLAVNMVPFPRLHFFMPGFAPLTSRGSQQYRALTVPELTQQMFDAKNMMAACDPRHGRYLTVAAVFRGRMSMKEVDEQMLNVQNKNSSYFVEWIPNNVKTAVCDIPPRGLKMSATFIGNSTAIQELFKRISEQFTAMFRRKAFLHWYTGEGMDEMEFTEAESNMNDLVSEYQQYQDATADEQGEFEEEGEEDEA

By IC50 is commonly meant the concentration needed to halve the response being measured. Broadly, the EC50 is the concentration that produces a half-maximal response. Regarding `Cc1cc(NC(=O)c2ccc(NS(=O)(=O)CCO)cc2N2CCC3(CC2)CC3)nc(N2CCC(F)(F)CC2)n1` [AMG650, reference compound], in the experiment on HCT116 cells, the “Anti-proliferative activity against HCT116 cells (in words)” value was “neither the compounds of the present invention nor AMG650 have anti-proliferative activity” and the 50% inhibitory concentration (IC50) is above 10000 nM. Also, the 50% effective concentration (EC50) in experiment [1] was found to be 52.3 nM. Besides, in experiment [2], the “Tumor volume on day 1 of treatment” value is reported as 121 mm^3, the “Tumor volume on day 28 of treatment” value turned out to be 649 mm^3 and the “TGI (tumor growth inhibition)” value was determined as 64%. In addition, the midpoint of inhibition in the experiment on HT-29 cells, the IC50, lay at 109 nM.
For the compound `O=C(Nc1ccc([N+](=O)[O-])c(N2CCC(F)(F)CC2)n1)c1ccc(NS(=O)(=O)CCO)cc1N1CCC2(CC1)CC2` [Compound 65], the concentration for half-maximal inhibition (IC50) was above 10000 nM in the experiment with HCT116 cells, at most 100 nM in experiment [3] and 55.3 nM in the experiment with HT-29 cells. Moreover, the EC50 in experiment [1] amounted to 45.5 nM.
For `O=C(Nc1ccc(NS(=O)(=O)CCO)cc1N1CCC2(CC1)CC2)c1ccc([N+](=O)[O-])c(N2CCC(F)(F)CC2)n1` [Compound 161] the same measures were above 10000 nM, at most 100 nM, 66.1 nM and 26.4 nM.
Taken in the same sequence, the figures for `COc1ccc(NC(=O)c2ccc(NS(=O)(=O)CCO)cc2N2CCC3(CC2)CC3)nc1N1CCC(F)(F)CC1` [Compound 257] were above 10000 nM, at most 100 nM, 11.1 nM and 8.4 nM.
Consider `COc1ccc(NC(=O)c2ccc(S(=O)(=O)NCCO)cc2N2CCC3(CC2)CC3)nc1N1CCC(F)(F)CC1` [Compound 273], for which the 50% inhibitory concentration (IC50) in experiment [3] is at most 100 nM. For the same compound, the EC50 in experiment [1] was found to be 8.5 nM.
For `COc1ccc(C(=O)Nc2ccc(NS(=O)(=O)CCO)cc2N2CCC3(CC2)CC3)nc1N1CCC(F)(F)CC1` [Compound 321], the IC50 with HCT116 cells was above 10000 nM; in experiment [3] it was at most 100 nM; with HT-29 cells it was 59.3 nM. In addition, in experiment [1], the EC50 came to 15.8 nM.
In the case of `COc1ccc(C(=O)Nc2cnc(NS(=O)(=O)CCO)cc2N2CCC3(CC2)CC3)nc1N1CCC(F)(F)CC1` [Compound 353], the values for the IC50 (in the experiment on HCT116 cells; in experiment [3]; in the experiment on HT-29 cells) were above 10000 nM, at most 100 nM and 74.6 nM, respectively. Further, the EC50 in experiment [1] was 42.2 nM.
As for `CNc1ccc(NC(=O)c2ccc(NS(=O)(=O)CCO)cc2N2CCC3(CC2)CC3)cc1N1CCC(F)(F)CC1` [Compound 641], the half-inhibitory concentration (IC50) with HCT116 cells is above 10000 nM; in the experiment with HT-29 cells, 75.8 nM. Also, the concentration for a half-maximal effect (EC50) in experiment [1] was 21.7 nM.
For `CN(C)c1ccc(NC(=O)c2ccc(NS(=O)(=O)CCO)cc2N2CCC3(CC2)CC3)cc1N1CCC(F)(F)CC1` [Compound 645] the same measures were above 10000 nM, 71.3 nM and 69.6 nM.
On to `COc1ccc(NC(=O)c2ccc(NS(=O)(=O)CCOC(C)=O)cc2N2CCC3(CC2)CC3)nc1N1CCC(F)(F)CC1` [Compound 661], for which the concentration for half-maximal inhibition (IC50) in the experiment with HCT116 cells is above 10000 nM. Besides, in experiment [1], the EC50 worked out at 23.7 nM. In experiment [2], the “Tumor volume on day 1 of treatment” value is given as 121 mm^3, the “Tumor volume on day 28 of treatment” value is listed as 704 mm^3 and the “TGI (tumor growth inhibition)” value turned out to be 61%. In the experiment with HT-29 cells, 25.8 nM corresponded to half-maximal inhibition (IC50).
`COc1ccc(NC(=O)c2ccc(NS(=O)(=O)CCOC(=O)C(C)C)cc2N2CCC3(CC2)CC3)nc1N1CCC(F)(F)CC1` [Compound 663]: the values for the IC50 with HCT116 cells and in the experiment on HT-29 cells were above 10000 nM and 35 nM, respectively. For the same compound, in experiment [1], the EC50 was determined as 28.3 nM.
For `COc1ccc(C(=O)Nc2ccc(NS(=O)(=O)CCOC(C)=O)cc2N2CCC3(CC2)CC3)nc1N1CCC(F)(F)CC1` [Compound 669], the IC50 in the experiment on HCT116 cells was above 10000 nM. In experiment [2], the “Tumor volume on day 1 of treatment” value was 121 mm^3, the “Tumor volume on day 28 of treatment” value was 1158 mm^3 and the “TGI (tumor growth inhibition)” value is 30%. In the experiment on HT-29 cells, this compound yielded a concentration for half-maximal inhibition (IC50) of 25.8 nM.
Consider `COc1ccc(NC(=O)c2ccc(NS(=O)(=O)CCOC(=O)[C@@H](N)C(C)C)cc2N2CCC3(CC2)CC3)nc1N1CCC(F)(F)CC1` [Compound 714], for which the concentration giving a half-maximal response (EC50) in experiment [1] came to 39.2 nM. Moreover, in experiment [2], the “Tumor volume on day 1 of treatment” value was found to be 121 mm^3, the “Tumor volume on day 28 of treatment” value was determined as 424 mm^3, the “TGI (tumor growth inhibition)” value came out at 80% and the “Inhibitory effect on HT29 mouse subcutaneous xenograft tumor (in words)” value is “stronger inhibitory effects”.
In the case of `COc1ccc(C(=O)Nc2ccc(NS(=O)(=O)CCOC(=O)[C@@H](N)C(C)C)cc2N2CCC3(CC2)CC3)nc1N1CCC(F)(F)CC1` [Compound 727], in experiment [2], the “Tumor volume on day 1 of treatment” value amounted to 121 mm^3, the “Tumor volume on day 28 of treatment” value came out at 519 mm^3, the “TGI (tumor growth inhibition)” value came out at 73% and the “Inhibitory effect on HT29 mouse subcutaneous xenograft tumor (in words)” value is “stronger inhibitory effects”.
Taken in the same sequence, the figures for `COc1ccc(NC(=O)c2ccc(S(=O)(=O)NCCOC(=O)[C@@H](N)C(C)C)cc2N2CCC3(CC2)CC3)nc1N1CCC(F)(F)CC1` [Compound 740] were 121 mm^3, 605 mm^3, 67% and “stronger inhibitory effects”.
